Laboratory results from ChEMBL document CHEMBL3272201, “Synthesis of tetrazole ribonucleosides and their evaluation as antiviral agents” (J Med Chem, 1976).
Calls of active or inactive are those of the source. No cut-off for these calls is given here.

Key:
Type in all cases: functional, organism-based
Influenza A virus [1] = assay: (§1) Antiviral activity against Influenza A virus (A2/Asian/J305) infected in Swiss albino mouse assessed as increase in host survival at 100 mg/kg, ip administered 4 hrs before infection, 1 hr after infection followed by twice daily for next 6 days for total of 14 treatments measured on 21st day post-infection; design: dose 100 mg/kg
Influenza A virus [2] = assay: as §1, with “25” for “100”; design: dose 25 mg/kg
Influenza A virus [3] = assay: as §1, with “20” for “100”; design: dose 20 mg/kg

Question: For `OC[C@H]1O[C@@H](n2cnnn2)[C@H](O)[C@@H]1O`, which Activity (Influenza A virus [1]) is on record?
Answer: inactive

Question: `NC(=O)c1nnnn1[C@@H]1O[C@H](CO)[C@@H](O)[C@H]1O` was tested. Which Activity (Influenza A virus [1]) did it give?
Answer: inactive

Question: How did the Activity (Influenza A virus [2]) turn out when `NC(=O)Cc1nnnn1[C@@H]1O[C@H](CO)[C@@H](O)[C@H]1O` was run?
Answer: inactive

Question: Which Activity (Influenza A virus [3]) does the source give for `NC(=O)c1ncn([C@@H]2O[C@H](CO)[C@@H](O)[C@H]2O)n1` here?
Answer: Active
